Where two headings read alike, the source gives them in different places.
Key:
[1] = Bioavailability of anhydrous vs monohydrate form of dasatinib by gastric pH (data on file); assay type: in vivo, human
[2] = Drug-drug interaction study with omeprazole (staggered approach), pharmacokinetics; details: human, plasma, oral
Procedure: The DDI study was a single-sequence, 2-period, open-label study to investigate the effects of an oral proton pump inhibitor (PPI) omeprazole (Helicid 40 mg capsules, Zentiva, k.s., Czech Republic) administered QD for 5 days on the pharmacokinetics (PK) of T when ingested 2 h prior to the last omeprazole dose (‘staggered approach’). All subjects received T alone in the first period and T under pre-treatment with omeprazole in the second period.
Subjects fasted for at least 10 h prior to dosing and no food was provided until 4 h after the dose, after which a standardized breakfast was served. […]
The plasma concentration-time profiles and pharmacokinetic parameters determined for dasatinib included maximum plasma concentration (Cmax), time to reach the maximum plasma concentration (Tmax), area under the plasma concentration-time curve from time zero to the time of the last quantifiable concentration (AUC0-t, measured by linear trapezoid method), AUC from time zero to infinity (AUC0-inf), terminal elimination half-life (thalf). The pharmacokinetic parameters were determined by non-compartmental methods using Phoenix WinNonlin, version 8.1 (Certara, USA).
Arithmetic mean and standard deviation were summarized for the main pharmacokinetic parameters. For Tmax, median and range were determined. […]

[3] = Intrinsic dissolution rate, rotation disk (Sirius inForm), acetate/phosphate buffer pH 4.5; details: for intrinsic dissolution rate: acetate buffer pH 4.5, 37 °C, 100 rpm
[4] = parameters: method as in PMID 19395585; details: cited from earlier work
[5] = Safety and tolerability, drug-drug interaction study (adverse events, CTC grade); assay type: in vivo, human; details: after dasatinib alone
Procedure: Safety was evaluated through assessment of adverse events, clinical and laboratory test results, physical examination, and concomitant medication usage.

[6] = cited from earlier work
[7] = system: non-small-cell lung carcinoma; parameters: method as in PMID 25246385; details: cited from earlier work
[8] = parameters: method as in PMID 15032311, PMID 15568890; details: oral; cited from earlier work
[9] = without PPI or H2-receptor antagonists

## Cc1nc(Nc2ncc(C(=O)Nc3c(C)cccc3Cl)s2)cc(N2CCN(CCO)CC2)n1 [dasatinib anhydrate, dasatinib]
[1]; normogastric population
  increase of bioavailability compared with monohydrate form: approximately 20%
[1]; subjects with gastric pH >4 (data on file)
  fold higher bioavailability compared with monohydrate form: about 3.5 fold
[2]
  Tmax: 1.25 h
[2]; 110.6 mg
  Tmax: 0.83 h
[3]; acetate buffer pH 4.5
  fold higher intrinsic dissolution rate compared to monohydrate form: more than 80 fold
[3]; listed as Anhydrous polymorph of dasatinib
  intrinsic dissolution rate: 1606 mcg/min/cm^2
[3]; pH of 4.5
  fold difference in aqueous solubility compared with monohydrate form: > 80 fold

## Cc1nc(Nc2ncc(C(=O)Nc3c(C)cccc3Cl)s2)cc(N2CCN(CCO)CC2)n1 [dasatinib monohydrate, dasatinib]
[4]; pH 2.6
  solubility: 18400 µg/mL
[4]; pH 4.28
  solubility: 205 µg/mL
[4]; pH 6.99
  solubility: < 1 µg/mL
[3]; listed as monohydrate form
  intrinsic dissolution rate: 19 mcg/min/cm^2

## Cc1nc(Nc2ncc(C(=O)Nc3c(C)cccc3Cl)s2)cc(N2CCN(CCO)CC2)n1 [dasatinib]
[5]; CTC Grade 1
  Chills, number of adverse effects: 1
  Fever, number of adverse effects: 0
  Headache, number of adverse effects: 1
  Nausea, number of adverse effects: 3
  Neck exanthema, number of adverse effects: 0
  Palmar exanthema, number of adverse effects: 0
  Vomiting, number of adverse effects: 1
  Weakness, number of adverse effects: 2
[5]; CTC Grade 2
  Chills, number of adverse effects: 0
  Fever, number of adverse effects: 1
  Headache, number of adverse effects: 6
  Nausea, number of adverse effects: 1
  Neck exanthema, number of adverse effects: 1
  Palmar exanthema, number of adverse effects: 1
  Vomiting, number of adverse effects: 0
  Weakness, number of adverse effects: 0
[6]; co-administration of dexamethasone, according to the label
  decrease of AUC: approximately 25%
[6]; co-administration with antacids
  AUC decrease: ~ 55%
[6]; co-administration with betaine hydrochloride
  prevention of dasatinib AUC decrease induced by rabeprazole: 78%
[6]; co-administration with famotidine
  AUC decrease: ~ 60%
[6]; dasatinib administered 22 h after the last dose of the PPI
  reduction in dasatinib bioavailability: > 40%

## C#Cc1cccc(Nc2ncnc3cc(OCCOC)c(OCCOC)cc23)c1 [erlotinib]
[7]; with co-administration of PPI or H2-receptor antagonists, p < 0.001
  median progression free survival: 1.4 months
[7]; with co-administration of PPI or H2-receptor antagonists, p = 0.003
  median overall survival: 12.9 months
[7]; [9]
  median overall survival: 16.8 months
  median progression free survival: 2.3 months

## O=C1NC(=O)C(c2ccccc2)(c2ccccc2)N1 [phenytoin]
[8]
  absolute bioavailability: > 90%
